From patent publication US11059846B2, “Immune stimulating compound” (ISR IMMUNE SYSTEM REGULATION HOLDING AB (PUBL), priority 2017, dated 2021)
Blank lines part the entries; values can stand above or below the compound they belong to.

Experiments:
[1] = tested on: Human peripheral blood mononuclear cells (PBMCs); experiment: Marker expression on PBMC by flow cytometry; assay type: cell-based; conditions: 24 h
Procedure: Human peripheral blood mononuclear cells (PBMCs) were purified from healthy donors with Ficoll-Paque density centrifugation. Cells were cultured in complete RPMI-1640 media (Invitrogen) supplemented with 25 mM HEPES, L-glutamine, Sodium pyruvate (Sigma), 10% fetal bovine serum, 100 μg/mL penicillin and 100 μg/mL streptomycin (Hyclone) for 24-72 hours in 37° C., 5% CO2 and stimulated with and increasing concentrations of compound 1 and 2. Cells were then washed in PBS and stained with monoclonal antibodies specific for cell surface markers (BD Pharmingen) and analysed with flow cytomtery using a BD FACS Canto II flow cytometer. All samples were tested in duplicates.
Human peripheral blood mononuclear cells (PBMCs) were purified from healthy donors with Ficoll-Paque density centrifugation. Cells were cultured in complete RPMI-1640 medium (Invitrogen) supplemented with 25 mM HEPES, L-glutamine, Sodium pyruvate (Sigma), 10% fetal bovine serum, 100 μg/mL penicillin and 100 μg/mL streptomycin (Hyclone). Cells were stimulated for 24 h (study 1-4) or 48 h to 1 week (study 5) in 37° C., 5% CO2 with increasing concentrations of compound 1 and 2 in tissue culture plates. The cells were removed from the plate, washed in PBS and analysed for expression of cell specific surface markers and MHC class I with flow cytometry using monoclonal antibodies from BD Pharmingen and a FACS Canto II flow cytometer.

CD4+ T cells = experiment: IL-1beta secretion from CD4+ T cells, cytometric bead assay; assay type: cell-based; conditions: 2 days
Procedure: (§1) FIG. 13: IL1b secretion (as measured by cytometric bead assay) from PBMC, macro-phages or CD4 T cells stimulated with indicated compound for 48 h.
(§2) Study 12: PBMCs, macrophages and CD4+ T cells where exposed to compounds 1 and 2 for 2 days.

[2] = tested on: Macrophages from healthy donors; experiment: Cytokine/chemokine secretion from macrophages, cytometric bead assay; assay type: cell-based; conditions: 2 days
Procedure: FIG. 10: Interferon-gamma secretion (as measured by cytometric bead assay) from macrophages stimulated with indicated compound for 48 h.
(§3) FIG. 11: Chemokine RANTES secretion (as measured by cytometric bead assay) from PBMC or macrophages stimulated with indicated compound for 48 h.
(§4) FIG. 12: IL12p70 secretion (as measured by cytometric bead assay) from PBMC or macrophages stimulated with indicated compound for 48 h.
as §1
Study 9: Macrophages from healthy donors where exposed to compounds 1 or 2 for 48 hours. […] Compound 1 is therefore able to induce IFN-gamma secretion in macrophages from healthy donors.
(§5) Study 10: PBMCs and macrophages where exposed to compounds 1 or 2 for 2 days (FIG. 11).
(§6) Study 11: PBMCs and macrophages where exposed to compounds 1 and 2 for 2 days.
as §2

C57bl/6 mice [3] = experiment: CD25 high cells in blood of mice after i.v. injection, flow cytometry; assay type: in vivo
Procedure: FIG. 14: % CD25 high cells in blood of C57bl/6 mice injected 24 h previously with indicated dose of compound 1. CD25 expression was measured by flow cytometry.
Study 13: Compound 1 was administered i.v. to C57bl/6 mice at 0.165 mg/kg to 5 mg/kg. CD25+ cell abundance was increased in animals receiving the highest dose of 5 mg/kg (FIG. 14), as was body weight in the same group (not shown).

PBMCs = experiment: Cytokine/chemokine secretion from PBMC, cytometric bead assay; assay type: cell-based; conditions: 2 days
Procedure: as §3, §4, §1, §5, §6, §2

C57bl/6 mice [4] = experiment: MHC class I expression on CD11b+ splenocytes of mice after i.v. injection, flow cytometry; assay type: in vivo; conditions: spleen removed 24 h later
Procedure: FIG. 15: % MHC class I high CD11b+ cells in spleen of 3 individual C57bl/6 mice injected 24 h previously with indicated compound. MHC class I and CD11b expression was measured by flow cytometry.
Study 14: Compound 1 or 2 was administered i.v. to C57bl/6 mice.

[5] = tested on: CMV specific CD8+ T cells; experiment: CMV cultures: phenotype of CMV specific CD8+ T cells; assay type: cell-based, Human; conditions: CMV antigen, 6 days
Procedure: FIG. 8. Upregulation of IL-7 receptor a (CD127) on CMV specific CD8 T cells after incubation with compound 1, measured with flow cytometry.
Human peripheral blood mononuclear cells (PBMCs) were purified from healthy CMV positive donors with Ficoll-Paque density centrifugation. The PBMC were labeled with 5 μM celltrace violet (Invitrogen) in PBS for 15 minutes and then washed with complete cell culture medium. The labeled PBMC was cultured in the presence of a peptide library spanning the CMV pp65 protein (1 μg peptide/ml, JPT) in AIM-V media (Invitrogen) supplemented with L-glutamine, Sodium pyruvate (Sigma), 10% fetal bovine serum, 100 μg/mL penicillin and 100 μg/mL streptomycin (Hyclone) for 6-8 days in 37° C., 5% CO2. Cell proliferation was assessed with flow cytomtery using a BD FACS Canto II flow cytometer.
Study 7: CMV virus specific T cell proliferation was also affected by compound 1. […] CD127 is crucial for T cell homeostasis, differentiation and function, and reduced expression correlates with disease severity in HIV and other chronic viral diseases (Crawley et al Sem Imm 2012).

[6] = tested on: Monocytes differentiated into macrophages; experiment: CD80 expression on monocytes differentiated into macrophages, flow cytometry; assay type: cell-based, Human; conditions: 24 h
human TLR2 = biological target: T1, human TLR2 (Homo sapiens, UniProt O60603); experiment: TLR2 reporter assay (HEK-293-TLR cells, SEAP reporter); assay type: cell-based; conditions: compound 1 down to 5 μM; others up to 20 μM
T1 construct: host or cells: recombinant HEK-293-TLR cell lines
Procedure: These cell lines functionally over-express human TLR2 protein as well as a reporter gene which is a secreted alkaline phosphatase (SEAP). The production of this reporter gene is driven by an NFkB inducible promoter. […] 20 μl of each test article were used to stimulate the hTLR2 reporter cell lines in a 200 μl of final reaction volume. Samples were tested in duplicate, with at least two concentrations tested −20 μM and 10 μM.
Compounds were tested using a TLR2 reporter assay (see general methods) that measured for stimulation of the TLR2 receptor.

[7] = tested on: PBMCs from CMV infected donors; experiment: IFN-gamma secretion from PBMCs of CMV infected donors with CMV antigen, cytometric bead assay; assay type: cell-based, Human; conditions: 3 days
Text: FIG. 9: Interferon-gamma secretion (as measured by cytometric bead assay) from PBMCs (from a CMV+ donor) grown with CMV peptides in the presence or absence of compound 1 or 2 for 5 days.
Study 8: PBMCs from CMV infected donors cultured in the presence of CMV antigen where either untreated or exposed to compound 1 or compound 2 for 3 days.

T1 sequence (O60603 21-784): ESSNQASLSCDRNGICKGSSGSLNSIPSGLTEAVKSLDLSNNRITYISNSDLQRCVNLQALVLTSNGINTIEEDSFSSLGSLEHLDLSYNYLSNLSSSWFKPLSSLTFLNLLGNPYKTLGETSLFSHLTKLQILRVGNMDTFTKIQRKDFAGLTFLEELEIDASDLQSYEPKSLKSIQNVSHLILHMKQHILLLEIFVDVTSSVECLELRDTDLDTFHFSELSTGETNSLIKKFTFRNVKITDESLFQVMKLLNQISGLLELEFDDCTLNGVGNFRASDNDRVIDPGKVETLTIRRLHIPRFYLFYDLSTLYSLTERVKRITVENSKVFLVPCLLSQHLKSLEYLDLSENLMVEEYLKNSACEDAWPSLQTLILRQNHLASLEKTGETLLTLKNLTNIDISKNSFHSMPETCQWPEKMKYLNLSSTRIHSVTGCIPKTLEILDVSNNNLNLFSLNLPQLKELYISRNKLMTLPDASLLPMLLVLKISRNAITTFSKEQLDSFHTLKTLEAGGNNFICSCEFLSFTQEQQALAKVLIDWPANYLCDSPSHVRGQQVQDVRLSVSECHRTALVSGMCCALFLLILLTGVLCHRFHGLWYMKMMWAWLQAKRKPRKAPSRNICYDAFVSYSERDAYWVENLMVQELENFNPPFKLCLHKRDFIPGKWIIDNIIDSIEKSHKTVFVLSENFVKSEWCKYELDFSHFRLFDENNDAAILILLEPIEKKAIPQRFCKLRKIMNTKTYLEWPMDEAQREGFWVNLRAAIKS

Structure (SMILES): CC[C@H]1OC(=O)[C@H](C)[C@@H](O[C@H]2C[C@@H](N(C)C)[C@H](O)[C@@H](C)O2)[C@H](C)[C@@H](O)[C@](C)(O)C[C@@H](C)CN(C)[C@H](C)[C@@H](O)[C@]1(C)O [Compound 1]
CD69 expression on B cells ([1]; 1 μM): upregulated
CD69 expression on CD4+ T cells ([1]; 1 μM): upregulated
CD80 expression on monocytes [1]: upregulation
MHC class I (HLA-ABC) expression on B-cells [1]: upregulation
MHC class I (HLA-ABC) expression on T-cells [1]: upregulation
MHC class II (HLA-DR) expression on monocytes [1]: upregulation
IL-1beta secretion in CD4+ T cells (CD4+ T cells): no IL-1beta was induced
IL-1beta secretion in macrophages [2]: increased
RANTES expression in macrophages [2]: high expression
body weight (C57bl/6 mice [3]; 5 mg/kg group (not shown)): increased
CD25+ cell abundance in blood (C57bl/6 mice [3]; highest dose of 5 mg/kg, 24 h): increased
IL-1beta secretion in PBMCs (PBMCs): slightly
RANTES expression in PBMCs (PBMCs): twofold upregulation
splenocyte cells (CD11b+) with high MHC I expression (C57bl/6 mice [4]): increase
expression of IL-7 receptor a (CD127) on activated CMV specific CD8+ T cells [5]: increased expression
CD80 expression on macrophages [6]: upregulated
stimulation of TLR2 (in words) (human TLR2): stimulated TLR2
IFN-gamma secretion [7]: induced secretion of high levels

stimulation of TLR2 (in words) (human TLR2): little or no stimulation
Structure (SMILES): CC[C@H]1OC(=O)[C@H](C)[C@@H](O[C@H]2C[C@@](C)(OC)[C@@H](O)[C@H](C)O2)[C@H](C)[C@@H](O[C@@H]2O[C@H](C)C[C@H](N(C)C)[C@H]2O)[C@](C)(O)C[C@@H](C)C(=O)[C@H](C)[C@@H](O)[C@]1(C)O [Erythromycin]

stimulation of TLR2 (in words) (human TLR2): little or no stimulation
Structure (SMILES): CC[C@H]1OC(=O)[C@H](C)[C@@H](O[C@H]2C[C@@](C)(OC)[C@@H](O)[C@H](C)O2)[C@H](C)[C@@H](O[C@@H]2O[C@H](C)C[C@H](N(C)C)[C@H]2O)[C@](C)(O)C[C@@H](C)CN(C)[C@H](C)[C@@H](O)[C@]1(C)O [Azithromycin]
